Earlier results as cited in publication PMC10082216 (Nature Communications, 2023).

Details: read-out: Cmax in humans; at the lowest dose; ref not given; cited from earlier work

## C[C@H]1Cc2c([nH]c3cc(Cl)c(F)cc23)[C@@]2(N1)C(=O)Nc1ccc(Cl)cc12 [NITD609, cipargamin]
  Cmax: 630 nM
